These results are taken from US20250011292A1, “NOVEL RHODANINE DERIVATIVES AND USES THEREOF” (priority 2021, published 2025).

For data set [1], the system named is HeLa cells. In words: Light-induced and dark cytotoxicity, CCK-8 assay, HeLa cells. The data set is classed as cell-based. Particulars: for IC50: 24 hours, mean ± SD; for light-induced (photo-induced) cytotoxicity (in words): with or without blue light irradiation. Here is the method: (§1) HeLa cells and MCF-7 cells were purchased from ATCC (Manassas, VA). HeLa cells were cultured in high glucose DMEM culture medium (Sigma-Aldrich; St. Louis, MO) with glutamine, without sodium pyruvate, and supplemented with 10% fetal bovine serum (FBS) and 1% penicillin and […]. MCF-7 cells were cultured in MEM culture medium (Sigma-Aldrich) supplemented with 10% FBS and 1% penicillin and […]. Cells were incubated in 37° C. incubator with 5% CO2. Under dim light, compounds were dissolved in DMSO to form 20 mM stock solution and serially diluted in 96-well plate with full culture medium to form the working solution with DMSO concentration being 0.5% in all wells. HeLa and MCF-7 cells were seeded in 96-well plate at a density of 10^5/100 μL/well and incubated overnight, and then the culture medium was replaced with 100 μL of the compound-loaded working solution. The dark treatment group was kept in the incubator for 24 hours. The exposure treatment group was allowed to incubate for 30 minutes, followed by exposure with blue light for the designated time (5 min for 0.45 J/cm^2). After exposure, cells were returned to the incubator and incubated for 24 hours. 10 μL CCK-8 solution (Dojindo, Japan) was added to the cells in each well and incubated for 2 hours. The optical density at 450 nm of each well was read with the Perkin-Elmer Vector 3 plate reader (USA). Cells treated with 0.5% DMSO were used as the vehicle control and 100 μL culture medium with 10 μL CCK-8 was used as the blank control. Cell viability was calculated as: […]
(§2) All tests were in triplicate, and the IC50 was calculated with non-linear regression of concentration and cell viability by Graphpad Prism.
BW-PS-101 was incubated with cervical carcinoma HeLa cell line under darkness. After incubation for 30 min to facilitate internalization, cells were exposed to a low-power blue LED array (470 nm, 1.5 mW/cm^2, as described above) for 5 minutes (total irradiation energy 0.45 J/cm^2) and incubated for an additional 24 hours under darkness followed by cell viability determination with CCK-8 assay.

Another data set has as its system MCF-7 cells. Kind of data set: Light-induced and dark cytotoxicity, CCK-8 assay, MCF-7 cells. Format: cell-based. Particulars: 24 hours, mean ± SD. Here is the method: FIGS. 3A-3K are graphs showing the dose response of compounds as described herein in MCF-7 cells. […] The cells were treated and allowed the incubate for 24 hours (labeled in the figures as the compound name followed by “DARK”) or were treated, incubated for 30 minutes, exposed to light for a designated time, and then incubated for 24 hours (labeled in the figures as the compound name followed by “EXPO”).
as §1, §2
Additional compounds as described herein were tested. […] Light-induced cytotoxicity was then evaluated. […] PS-107, a compound with the furan ring replaced by phenyl, was synthesized as the structural mimetic control. […] All compounds were also tested against MCF-7 breast cancer cell line, which gave a similar trend of activity (Table 4).

A further data set is described as follows: Quantum yield ϕΔ in MeOH. Format: physicochemical.
The subject of data set [2] is HeLa cells. Kind of data set: Light-induced and dark cytotoxicity, CCK-8 assay, HeLa cells. The data set is classed as cell-based. The conditions noted are these: light energy 1.8 J/cm^2. In general terms: Tetrazolium dyes change colour on reduction, which living cells bring about.
A further data set relates to early endosomes. Kind of data set: Fluorescence microscopy, endosome localization. The data set is classed as cell-based. The conditions noted are these: for accumulation / enrichment in endosomes: fluorescence microscopy / imaging studies. As to the method: FIG. 8 are fluorescence microscopy images of BW-PS-105 (first row), BW-PS-110 (second row), and BW-PS-120 (third row) localized in early endosomes.
The trimethoxy substituted analog BW-PS-105, which was fluorescent with an Ex/Em wavelength of 491 nm/574 nm, was incubated with HeLa cell at a concentration of 1 μM. […] Endosome enrichment of the photosensitizer led to the potency increase of about 5 folds. Targeting photosensitizers to the endosome efficiently induces cancer cell apoptosis by photodynamic therapy.

The test system of the next data set is SARS-CoV-2. In words: Inhibition of SARS-CoV-2 replication in infected Huh7 cells. The data set is classed as cell-based. Particulars: read-out: EC50, inhibition of viral replication against SARS-COV-2. Here is the method:
FIGS. 1A-1C are graphs showing the inhibition of SARS-CoV-2 replication in Huh-7 cells by BW-PS-108 (FIG. 1A), BW-PS-109 (FIG. 1B), and Compound 136 (FIG. 1C). The top line in FIGS. 1A and 1B represent cytotoxicity. Cell pellets from infected cells were collected at 48 hours after infection and viral RNA levels were measured by RT-PCR.
No solubility issues were encountered when studying their toxicity at 100 μM.
The potency levels of the compounds described herein compare favorably against remdesivir and molnupiravir. […] Further, the potency levels of the compounds described herein were also higher than Compound 136.

Setting [3] is: Homo sapiens, HeLa, light or radiation study, blue light, exposure light energy density 0.45 J/cm^2, read-out: Hela cells Exposure IC50.
Setting [4] is: Homo sapiens, HeLa, dark, read-out: Hela cells Dark IC50.
The mark [5] stands for this setting: Homo sapiens, MCF7, light or radiation study, blue light, exposure light energy density 0.45 J/cm^2, read-out: MCF-7 cells Exposure IC50.
The mark [6] stands for this setting: Homo sapiens, MCF7, dark, read-out: MCF-7 cells Dark IC50.
[7] abbreviates: viral RNA by RT-PCR 48 hours after infection.
Where [8] appears, read: blue light, exposure light energy density 0.45 J/cm^2, read-out: Hela cells Exposure IC50.
The mark [9] stands for this setting: dark, read-out: Hela cells Dark IC50.
The mark [10] stands for this setting: blue light, exposure light energy density 0.45 J/cm^2, read-out: MCF-7 cells Exposure IC50.
The mark [11] stands for this setting: dark, read-out: MCF-7 cells Dark IC50.

One may read the IC50 as the concentration needed to halve the response being measured. Broadly, the EC50 is the concentration giving half of the maximal effect.

Where two headings read alike, the source gives them in different places.

In the case of `CCCN1C(=O)/C(=C/c2ccc(-c3ccccc3)o2)SC1=S` [BW-PS-101, (Z)-5-((5-phenylfuran-2-yl)methylene)-3-propyl-2-thioxothiazolidin-4-one], the “cytotoxicity of cells treated in the dark (in words)” value in the data set on HeLa cells [1] (HeLa, dark, up to 100 μM) is given as “did not show any cytotoxicity”. In addition, the IC50 in the data set on HeLa cells [1] (setting [3]) was 1380 ± 50 nM; in the data set with HeLa cells [1] (setting [4]), more than 100000 nM; in the data set with MCF-7 cells (setting [5]), 740 ± 140 nM; with MCF-7 cells (setting [6]) it was more than 100000 nM. Also, in “Quantum yield ϕΔ in MeOH”, the “ϕΔ MeOH)” value is given as 0.109. Further, the “IC50 in the HeLa cell at higher light energy” value with HeLa cells [2] is reported as “submicromolar range”.

For `CCCN1C(=O)/C(=C/c2ccc(-c3ccc(F)cc3)o2)SC1=S` [BW-PS-102, (Z)-5-((5-(4-fluorophenyl)furan-2-yl)methylene)-3-propyl-2-thioxothiazolidin-4-one], the IC50 is 1480 ± 140 nM with HeLa cells [1] (setting [3]), more than 100000 nM in the data set with HeLa cells [1] (setting [4]), 1260 ± 4 nM with MCF-7 cells (setting [5]) and more than 100000 nM in the data set on MCF-7 cells (setting [6]). The “light-induced (photo-induced) cytotoxicity (in words)” value with HeLa cells [1] is “comparable activity as BW-PS-101”. Also, the “ϕΔ MeOH)” value in the data set “Quantum yield ϕΔ in MeOH” worked out at 0.075.

For `CCCN1C(=O)/C(=C/c2ccc(-c3ccc(O)cc3)o2)SC1=S` [BW-PS-103, (Z)-5-((5-(4-hydroxyphenyl)furan-2-yl)methylene)-3-propyl-2-thioxothiazolidin-4-one], the IC50 with HeLa cells [1] (setting [3]) is 3580 ± 130 nM; in the data set with HeLa cells [1] (setting [4]), more than 100000 nM; with MCF-7 cells (setting [5]), 4250 ± 170 nM; with MCF-7 cells (setting [6]), approximately 100000 nM. The “ϕΔ MeOH)” value in the data set “Quantum yield ϕΔ in MeOH” stood at 0.007.

Take `CCCN1C(=O)/C(=C/c2ccc(-c3ccc(OC)cc3)o2)SC1=S` [BW-PS-104, (Z)-5-((5-(4-methoxyphenyl)furan-2-yl)methylene)-3-propyl-2-thioxothiazolidin-4-one]: the IC50 in the data set with HeLa cells [1] (setting [3]) was 2710 ± 230 nM; in the data set with HeLa cells [1] (setting [4]) it was more than 100000 nM; in the data set on MCF-7 cells (setting [5]) it was 2870 ± 920 nM; in the data set with MCF-7 cells (setting [6]) it was more than 100000 nM. For the same compound, the “ϕΔ MeOH)” value in the data set “Quantum yield ϕΔ in MeOH” is on record as 0.015.

`CCCN1C(=O)/C(=C/c2ccc(-c3cc(OC)c(OC)c(OC)c3)o2)SC1=S` [BW-PS-105, (Z)-3-propyl-2-thioxo-5-((5-(3,4,5-trimethoxyphenyl)furan-2-yl)methylene)thiazolidin-4-one]: the IC50 with HeLa cells [1] (setting [3]) is 2130 ± 300 nM; in the data set with HeLa cells [1] (setting [4]), more than 100000 nM; in the data set on MCF-7 cells (setting [5]), 2710 ± 780 nM; in the data set on MCF-7 cells (setting [6]), more than 100000 nM. The “ϕΔ MeOH)” value in the data set “Quantum yield ϕΔ in MeOH” is given as 0.028. For the same compound, the “accumulation / enrichment in endosomes” value with early endosomes is reported as “accumulation”.

In the case of `CCCN1C(=O)/C(=C/c2ccc(-c3ccc(C(F)(F)F)cc3)o2)SC1=S` [BW-PS-106, (Z)-3-propyl-2-thioxo-5-((5-(4-(trifluoromethyl)phenyl)furan-2-yl)methylene)thiazolidin-4-one], the IC50 is 2960 ± 90 nM with HeLa cells [1] (setting [3]), more than 100000 nM in the data set with HeLa cells [1] (setting [4]), 2580 ± 730 nM with MCF-7 cells (setting [5]) and more than 100000 nM in the data set on MCF-7 cells (setting [6]). The “ϕΔ MeOH)” value in “Quantum yield ϕΔ in MeOH” is 0.182.

For `CCCN1C(=O)/C(=C/c2cccc(-c3ccc(F)cc3)c2)SC1=S` [BW-PS-107, (Z)-5-((4′-fluoro-[1,1′-biphenyl]-3-yl)methylene)-3-propyl-2-thioxothiazolidin-4-one], the IC50 in the data set on HeLa cells [1] (setting [3]) and in the data set on MCF-7 cells (setting [5]) was more than 100000 nM each time. For the same compound, the “light-induced (photo-induced) cytotoxicity (in words)” value in the data set on HeLa cells [1] is reported as “did not show any photo-induced cytotoxicity”.

In the case of `O=C1C(=Cc2ccc(-c3ccccc3)o2)SC(=S)N1CCN1CCOCC1` [BW-PS-108], the EC50 in the data set with SARS-CoV-2 (setting [7]) came to 280 nM. For the same compound, the IC50 in the data set with HeLa cells [1] (setting [8]) was 950 ± 20 nM; in the data set on HeLa cells [1] (setting [9]), more than 100000 nM; in the data set with MCF-7 cells (setting [10]), 1220 ± 10 nM; in the data set on MCF-7 cells (setting [11]), more than 100000 nM. For the same compound, the “ϕΔ MeOH)” value in “Quantum yield ϕΔ in MeOH” was found to be 0.086.

On to `O=C1C(=Cc2ccc(-c3ccc(C(F)(F)F)cc3)o2)SC(=S)N1CCN1CCOCC1` [BW-PS-109], for which the EC50 in the data set with SARS-CoV-2 (setting [7]) was 190 nM. Moreover, the IC50 in the data set with HeLa cells [1] (setting [8]) is 630 ± 70 nM; in the data set on HeLa cells [1] (setting [9]), more than 100000 nM; with MCF-7 cells (setting [10]) it was 530 ± 90 nM; with MCF-7 cells (setting [11]), more than 100000 nM. In “Quantum yield ϕΔ in MeOH”, the “ϕΔ MeOH)” value is listed as 0.115.

Turning to `COc1cc(-c2ccc(C=C3SC(=S)N(CCN4CCOCC4)C3=O)o2)cc(OC)c1OC` [BW-PS-110], the IC50 in the data set on HeLa cells [1] (setting [8]) is 1740 ± 160 nM; in the data set with HeLa cells [1] (setting [9]), more than 100000 nM; with MCF-7 cells (setting [10]), 1250 ± 170 nM; in the data set on MCF-7 cells (setting [11]), more than 100000 nM. For the same compound, in the data set with early endosomes (fluorescence microscopy), the “co-localization with the endosome marker CellularLight endosomes-GFP” value is “good co-localization”. Further, the “accumulation / enrichment in endosomes” value in the data set on early endosomes is on record as “accumulation”.

Take `N.N.[Cl][Pt][Cl]` [Cisplatin, cisplatin, reference compound]: the IC50 came out at 5950 ± 170 nM in the data set on HeLa cells [1] (setting [8]), 7540 ± 450 nM in the data set with HeLa cells [1] (setting [9]), 13300 ± 1450 nM in the data set with MCF-7 cells (setting [10]) and 12500 ± 2860 nM in the data set with MCF-7 cells (setting [11]).

As to `CCC(CC)COC(=O)[C@H](C)N[P@](=O)(OC[C@H]1O[C@@](C#N)(c2ccc3c(N)ncnn23)[C@H](O)[C@@H]1O)Oc1ccccc1` [remdesivir, reference compound], the EC50 in the data set with SARS-CoV-2 (Severe acute respiratory syndrome coronavirus 2, Huh-7, viral RNA by RT-PCR 48 hours after infection) was 700 nM.
